Test results reported in patent publication US6080746A, “Methods and compositions for the prophylaxis and treatment of cytomegalovirus infections” (priority 1991, dated 2000).
Converted amounts (≈) assume the structure as drawn.

How the values were obtained:
human CMV = test: Plaque reduction assay against human CMV (ED50); type: cell-based
[1] = test system: human cytomegalovirus (strain AD 169); test: Inhibition of human cytomegalovirus in MRC5 cells by plaque reduction assay (reduction of CPE, MIC50; Table 1); type: cell-based; conditions: for inhibition at 0.032 µg/mL / inhibition at 0.1 µg/mL / inhibition at 0.32 µg/mL / inhibition at 1 µg/mL / inhibition at 3.2 µg/mL / inhibition at 10 µg/mL: Human betaherpesvirus 5, MRC5, treatment 0 hr postinfection, read-out: Reduction (%) of CPE at Time of Harvest; for inhibition at 0.032 µg/mL: 0.032 μg/ml; for inhibition at 0.1 µg/mL: 0.1 μg/ml; for inhibition at 0.32 µg/mL: 0.32 μg/ml; for inhibition at 1 µg/mL: 1.0 μg/ml; for inhibition at 3.2 µg/mL: 3.2 μg/ml; for inhibition at 10 µg/mL: 10 μg/ml
Description: (§1) In each case, drug treatment began 0 hr. postinfection.

MRC5 cells = test: Drug cytotoxicity (gross morphology) in MRC5 cell monolayer cultures (Tables 4 and 5); type: cell-based, human
Protocol: (§2) The effectiveness of racemic 2'-CdG and of D-2'-CdG on CMV yields in MRC5 cell monolayer cultures was determined by a plaque assay with the results set forth in Tables 4 and 5:
(§3) ^a Drug treatment began immediately following the virus adsorption
(§4) ^a Drug treatment began immediately following the 1 1/2 hour

HCMV [2] = test: Virus yield-reduction assay, combination with DHPG on HCMV replication in MRC5 cells (Table 2); type: cell-based, human CMV; conditions: DHPG 0
Description: Effect of Combination Treatment^a With (±)-2'-CDG and
DHPG on HCMV Replication in MRC5 Cells
(§5) (Virus Yield-Reduction Assay)

[3] = test system: human diploid embryonic lung cells (MRC5); test: Drug cytotoxicity (gross morphology) in MRC5 cells (Table 1)
Description: Also evaluated under the same conditions were prior art drugs Ara-A and ganciclovir (DHPG). In each case, drug treatment began 0 hr. postinfection.

CMV [4] = test: CMV yields in MRC5 cell monolayer cultures by plaque assay (Tables 4 and 5); type: cell-based; conditions: virus control 5.5
Protocol: as §2, §3, §4

HCMV [5] = test: Virus yield-reduction assay, combination with papaverine on HCMV replication in MRC5 cells (Table 3); type: cell-based, human CMV; conditions: papaverine (DHPG) 0
Description: The following results were obtained in testing mixtures of racemic 2'-CdG and papaverine under the same conditions:
Effect of Combination Treatment^a With Papaverine and
(±)-2'-CDG and on HCMV Replication in MRC5 Cells
as §5, §3

[6] = test system: human cytomegalovirus (strain AD 169); test: CMV yield in MRC5 cells (Table 1); type: cell-based
Description: as §1

CMV [7] = test: Reduction of CPE in CMV-infected MRC5 cell monolayer cultures (Tables 4 and 5); type: cell-based; conditions: Human betaherpesvirus 5, MRC5, read-out: Reduction (%) of CPE by CDG at Time of Harvest
Protocol: as §2, §3, §4

CMV [8] = test: MIC50 against CMV in MRC5 cells; type: cell-based; conditions: Human betaherpesvirus 5
[9] = (±)-2'-CDG 0.32 (mM as printed)
[10] = 0.1 μg/ml, virus control 5.5 (DHPG 5.3)
[11] = 0.32 μg/ml, virus control 5.5 (DHPG 5.3)
[12] = 1.0 μg/ml, virus control 5.5 (DHPG 5.3)
[13] = 3.2 μg/ml, virus control 5.5 (DHPG 5.3)
[14] = 10 μg/ml, virus control 5.5 (DHPG 5.3)

CC(C)C(=O)OC[C@H]1O[C@@H](n2cnc3c(=O)[nH]c(N)nc32)C[C@@H]1OC(=O)C(C)C (racemic) [racemic 2'-deoxyguanosine-3',5'-0-diisobutyrate, 2'-deoxyguanosine-3',5'-0-diisobutyrate]
ED50 (human CMV): 3.9 µg/mL (≈ 9.57 µM)

Nc1nc(N)c2ncn([C@@H]3C[C@H](CO)[C@@H](O)[C@H]3O)c2n1 (relative stereo) [DAPR]
IC50 ([1]; Human betaherpesvirus 5, MRC5, tested under the same conditions as Table 1): 8.7 µg/mL (≈ 31 µM) | therapeutic index ([1]; tested under the same conditions as Table 1): 40

Nc1nc2c(ncn2[C@@H]2C[C@H](CO)[C@@H](O)C2)c(=O)[nH]1 (relative stereo) [±2'-CdG]
Drug Cytotoxicity (gross morphology) (MRC5 cells; Table 4, 0.032 μg/mL): 0 | Drug Cytotoxicity (gross morphology) (MRC5 cells; Table 4, 0.1 μg/mL): 0 | Drug Cytotoxicity (gross morphology) (MRC5 cells; Table 4, 0.32 μg/mL): 0 | Drug Cytotoxicity (gross morphology) (MRC5 cells; Table 4, 1.0 μg/mL): 0 | Drug Cytotoxicity (gross morphology) (MRC5 cells; Table 4, 3.2 μg/mL): v. sl. | Drug Cytotoxicity (gross morphology) (MRC5 cells; Table 4, 10 μg/mL): sl. toxicity | Drug Cytotoxicity (gross morphology) (MRC5 cells; Table 4, 32 μg/mL): toxic | Reduction in CMV Yield (HCMV [2]; (±)-2'-CDG 0.1 (mM as printed)): 0.1 Log10 PFU/ML | Reduction in CMV Yield (HCMV [2]; [9]): 0.5 Log10 PFU/ML | Reduction in CMV Yield (HCMV [2]; (±)-2'-CDG 1.0 (mM as printed)): 0.6 Log10 PFU/ML | Reduction in CMV Yield (HCMV [2]; (±)-2'-CDG 3.2 (mM as printed)): 1.0 Log10 PFU/ML | inhibition at 0.032 µg/mL [1]: 0% | inhibition at 0.1 µg/mL [1]: 0% | inhibition at 0.32 µg/mL [1]: 20% | inhibition at 1 µg/mL [1]: 95% | inhibition at 3.2 µg/mL [1]: 100% | inhibition at 10 µg/mL [1]: 100% | Drug Cytotoxicity (gross morphology) ([3]; 0.032 μg/ml): 0 | Drug Cytotoxicity (gross morphology) ([3]; 0.1 μg/ml): 0 | Drug Cytotoxicity (gross morphology) ([3]; 0.32 μg/ml): 0 | Drug Cytotoxicity (gross morphology) ([3]; 1.0 μg/ml): 0 | Drug Cytotoxicity (gross morphology) ([3]; 3.2 μg/ml): v. sl. toxic | Drug Cytotoxicity (gross morphology) ([3]; 10 μg/ml): sl. toxic | Drug Cytotoxicity (gross morphology) ([3]; 32 μg/ml): toxic | CMV Yield (CMV [4]; Table 4, 0.032 μg/mL): 5.4 log10 CCID50 /mL | CMV Yield (CMV [4]; Table 4, 0.1 μg/mL): 5.0 log10 CCID50 /mL | CMV Yield (CMV [4]; Table 4, 0.32 μg/mL): 4.5 log10 CCID50 /mL | CMV Yield (CMV [4]; Table 4, 1.0 μg/mL): 3.6 log10 CCID50 /mL | CMV Yield (CMV [4]; Table 4, 3.2 μg/mL): 1.0 log10 CCID50 /mL | CMV Yield (CMV [4]; Table 4, 10 μg/mL): 0 log10 CCID50 /mL | Reduction in CMV Yield (HCMV [5]; [9]): 0.7 Log10 PFU/ML | Reduction in CMV Yield (HCMV [5]; (±)-2'-CDG 1.0 (mM as printed)): 1.0 Log10 PFU/ML | Reduction in CMV Yield (HCMV [5]; (±)-2'-CDG 3.2 (mM as printed)): 1.7 Log10 PFU/ML | Reduction in CMV Yield (HCMV [5]; (±)-2'-CDG 10.0 (mM as printed)): 2.7 Log10 PFU/ML | CMV Yield ([6]; 0.032 μg/ml, virus control 5.5): 5.4 log10 CCID50 /ml | CMV Yield [6, 10]: 5.0 log10 CCID50 /ml | CMV Yield [6, 11]: 4.5 log10 CCID50 /ml | CMV Yield [6, 12]: 3.6 log10 CCID50 /ml | CMV Yield [6, 13]: 1.0 log10 CCID50 /ml | CMV Yield [6, 14]: 0 log10 CCID50 /ml | inhibition at 0.032 µg/mL (CMV [7]; Table 4, 0.032 μg/mL): 0% | inhibition at 0.1 µg/mL (CMV [7]; Table 4, 0.1 μg/mL): 0% | inhibition at 0.32 µg/mL (CMV [7]; Table 4, 0.32 μg/mL): 20% | inhibition at 1 µg/mL (CMV [7]; Table 4, 1.0 μg/mL): 95% | inhibition at 3.2 µg/mL (CMV [7]; Table 4, 3.2 μg/mL): 100% | inhibition at 10 µg/mL (CMV [7]; Table 4, 10 μg/mL): 100% | IC50 (CMV [8]): 0.069 µg/mL (≈ 0.26 µM)

Nc1nc(N)c2ncn([C@@H]3C[C@H](CO)[C@@H](O)C3)c2n1 (relative stereo) [±C-2,6'-DAPdR]
inhibition at 0.032 µg/mL [1]: 0% | inhibition at 0.1 µg/mL [1]: 0% | inhibition at 0.32 µg/mL [1]: 25% | inhibition at 1 µg/mL [1]: 95% | inhibition at 3.2 µg/mL [1]: 100% | inhibition at 10 µg/mL [1]: 100% | Drug Cytotoxicity (gross morphology) ([3]; 0.032 μg/ml): 0 | Drug Cytotoxicity (gross morphology) ([3]; 0.1 μg/ml): 0 | Drug Cytotoxicity (gross morphology) ([3]; 0.32 μg/ml): 0 | Drug Cytotoxicity (gross morphology) ([3]; 1.0 μg/ml): 0 | Drug Cytotoxicity (gross morphology) ([3]; 3.2 μg/ml): v. sl. toxic | Drug Cytotoxicity (gross morphology) ([3]; 10 μg/ml): sl. toxic | Drug Cytotoxicity (gross morphology) ([3]; 32 μg/ml): toxic | CMV Yield ([6]; 0.032 μg/ml, virus control 5.5): 5.3 log10 CCID50 /ml | CMV Yield [6, 10]: 5.0 log10 CCID50 /ml | CMV Yield [6, 11]: 4.0 log10 CCID50 /ml | CMV Yield [6, 12]: 3.4 log10 CCID50 /ml | CMV Yield [6, 13]: 0 log10 CCID50 /ml | CMV Yield [6, 14]: 0 log10 CCID50 /ml
